From patent US8680159B2, “Bradykinin 1 receptor modulating compounds” (Gruenenthal GmbH, priority 2010, dated 2014)

Legend:
[1] = target: T1, human B1R receptor (CHO K1 cells stably transfected with the human B1R gene) (Homo sapiens, UniProt P46663); assay: Functional study on the bradykinin receptor 1 (B1R), Ca2+ fluorescence (Fluo-4) FLIPR/Novostar assay, hB1R cells; format: cell-based; settings: CHO-K1, read-out: % inhibition (human B1R) at 10 μM
T1 construct: expressed in transfected cells; host or cells: CHO K1 cells (Chinese hamster ovary), stably transfected
T1 sequence (P46663 1-353): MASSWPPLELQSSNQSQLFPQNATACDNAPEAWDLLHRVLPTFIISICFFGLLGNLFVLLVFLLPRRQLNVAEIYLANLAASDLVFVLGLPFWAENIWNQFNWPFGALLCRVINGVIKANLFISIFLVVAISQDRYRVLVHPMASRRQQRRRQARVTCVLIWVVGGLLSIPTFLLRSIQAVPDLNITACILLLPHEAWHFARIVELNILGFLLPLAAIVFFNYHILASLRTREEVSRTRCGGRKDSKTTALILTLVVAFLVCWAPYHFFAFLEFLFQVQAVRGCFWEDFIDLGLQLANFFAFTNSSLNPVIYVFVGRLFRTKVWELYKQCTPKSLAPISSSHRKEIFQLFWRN
Procedure, shortened: (§1)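 Test compounds (10 μM) were added first and the Ca2+ rise was scored as % activation against Lys-Des-Arg9-bradykinin (≥50 nM, human) or Des-Arg9-bradykinin (≥1 μM, rat). After 6-20 min, the matching agonist was given at its EC80, and % inhibition relative to maximal achievable inhibition was calculated.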

[2] = target: T2, B1R receptor of the rat (CHO K1 cells stably transfected with the B1R gene of the rat) (Rattus norvegicus, UniProt P97583); assay: Functional study on the bradykinin receptor 1 (B1R), Ca2+ fluorescence (Fluo-4) FLIPR/Novostar assay, rB1R cells; format: cell-based; settings: CHO-K1, 10 μM, read-out: % inhibition (rat B1R) at 10 μM
T2 construct: expressed in transfected cells; host or cells: CHO K1 cells (Chinese hamster ovary), stably transfected
T2 sequence (P97583 1-337): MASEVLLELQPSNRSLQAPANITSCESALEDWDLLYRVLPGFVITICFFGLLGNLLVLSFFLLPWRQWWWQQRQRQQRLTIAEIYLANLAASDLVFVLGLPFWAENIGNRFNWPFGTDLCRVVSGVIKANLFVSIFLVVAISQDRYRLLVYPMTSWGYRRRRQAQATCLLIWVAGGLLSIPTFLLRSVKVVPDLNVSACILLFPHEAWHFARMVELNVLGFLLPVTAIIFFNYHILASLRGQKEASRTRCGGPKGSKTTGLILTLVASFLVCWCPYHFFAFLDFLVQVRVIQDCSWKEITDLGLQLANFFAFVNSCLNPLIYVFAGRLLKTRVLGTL
Procedure, shortened: as §1

| Compound | inhibition at 10 µM [1] [%] | inhibition at 10 µM [2] [%] |
| --- | --- | --- |
| Cc1cc(N2CCC(N(C)C(=O)c3cc4c(cc3F)[C@H](NC(=O)c3cc(C)on3)CC4)CC2)nc(C)n1 [Example H-143, N-[(1R)-5-[[1-(2,6-Dimethyl-pyrimidin-4-yl)-piperidin-4-yl]-methyl-carbamoyl]-6-fluoro-2,3-dihydro-1H-inden-1-yl]-5-methyl-isoxazole-3-carboxylic acid amide] | 98 | 31 |
| Cc1cc(N2CCC(N(C)C(=O)c3ccc4c(c3)[C@H](N(C(=O)c3ccccc3Cl)C(C)C)CC4)CC2)nc(C)n1 [Example H-144, (3R)-3-[(2-Chloro-benzoyl)-isopropyl-amino]-N-[1-(2,6-dimethyl-pyrimidin-4-yl)-piperidin-4-yl]-N-methyl-2,3-dihydro-1H-indene-5-carboxylic acid amide] | 91 | 77 |
| CCN(C(=O)c1ccccc1Cl)[C@@H]1CCc2ccc(C(=O)N(C)C3CCN(c4cc(C)nc(C)n4)CC3)cc21 [Example H-145, (3R)-3-[(2-Chloro-benzoyl)-ethyl-amino]-N-[1-(2,6-dimethyl-pyrimidin-4-yl)-piperidin-4-yl]-N-methyl-2,3-dihydro-1H-indene-5-carboxylic acid amide] | 100 | 106 |
| CN(C(=O)c1ccc2c(c1)[C@H](NC(=O)c1ccccc1Cl)CC2)C1CN(c2ccncc2)C1 [Example H-146, (3R)-3-[(2-Chloro-benzoyl)amino]-N-methyl-N-(1-pyridin-4-yl-azetidin-3-yl)-2,3-dihydro-1H-indene-5-carboxylic acid amide] | -1 | 107 |
| CN(C(=O)c1ccc2c(c1)[C@H](NC(=O)c1ccccc1Cl)CC2)C1CCN(c2ccncn2)CC1 [Example H-147, (3R)-3-[(2-Chloro-benzoyl)amino]-N-methyl-N-(1-pyrimidin-4-yl-piperidin-4-yl)-2,3-dihydro-1H-indene-5-carboxylic acid amide] | 99 | 107 |
| CN(C(=O)c1ccc2c(c1)[C@H](N(C)C(=O)c1ccccc1Cl)CC2)C1CCN(c2ccncn2)CC1 [Example H-148, (3R)-3-[(2-Chloro-benzoyl)-methyl-amino]-N-methyl-N-(1-pyrimidin-4-yl-piperidin-4-yl)-2,3-dihydro-1H-indene-5-carboxylic acid amide] | 89 | 99 |
| Cc1cc(N2CCC(N(C)C(=O)c3ccc4c(c3)[C@H](N(C)C(=O)c3ccccc3Cl)CC4)CC2)nc(C)n1 [Example H-149, (3R)-3-[(2-Chloro-benzoyl)-methyl-amino]-N-[1-(2,6-dimethyl-pyrimidin-4-yl)-piperidin-4-yl]-N-methyl-2,3-dihydro-1H-indene-5-carboxylic acid amide] | 100 | 101 |
| CC(C)N(C(=O)c1ccccc1Cl)[C@@H]1CCc2ccc(C(=O)N(C)C3CCN(c4ccncc4)CC3)cc21 [Example H-150, (3R)-3-[(2-Chloro-benzoyl)-isopropyl-amino]-N-methyl-N-(1-pyridin-4-yl-piperidin-4-yl)-2,3-dihydro-1H-indene-5-carboxylic acid amide] | 89 | 98 |
| Cc1cc(N2CCC(N(C)C(=O)c3cc4c(cc3F)[C@H](NC(=O)c3ccccc3Cl)CC4)CC2)nc(C)n1 [Example H-151, (1R)-1-[(2-Chloro-benzoyl)amino]-N-[1-(2,6-dimethyl-pyrimidin-4-yl)-piperidin-4-yl]-6-fluoro-N-methyl-2,3-dihydro-1H-indene-5-carboxylic acid amide] | 100 | 96 |
| Cc1cc(N2CCC(N(C)C(=O)c3cc4c(cc3F)[C@H](NC(=O)c3ccccc3Cl)CC4)CC2)ncn1 [Example H-152, (1R)-1-[(2-Chloro-benzoyl)amino]-6-fluoro-N-methyl-N-[1-(6-methyl-pyrimidin-4-yl)-piperidin-4-yl]-2,3-dihydro-1H-indene-5-carboxylic acid amide] | 82 | 93 |
| CN(C(=O)c1ccc2c(c1)[C@H](N(C)C(=O)c1ccccc1Cl)CC2)C1CCN(c2ccncc2)CC1 [Example H-153, (3R)-3-[(2-Chloro-benzoyl)-methyl-amino]-N-methyl-N-(1-pyridin-4-yl-piperidin-4-yl)-2,3-dihydro-1H-indene-5-carboxylic acid amide] | 100 | 101 |
| CC(C)N(C(=O)c1ccccc1Cl)[C@@H]1CCc2cc(F)c(C(=O)N(C)C3CCN(c4ccncc4)CC3)cc21 [Example H-155, (3R)-3-[(2-Chloro-benzoyl)-isopropyl-amino]-6-fluoro-N-methyl-N-(1-pyridin-4-yl-piperidin-4-yl)-2,3-dihydro-1H-indene-5-carboxylic acid amide] | 62 | 104 |
| CCN(C(=O)c1ccc2c(c1)[C@H](NC(=O)c1ccccc1Cl)CC2)C1CCN(c2ncnc3nc[nH]c23)CC1 [Example H-156, (3R)-3-[(2-Chloro-benzoyl)amino]-N-ethyl-N-[1-(7H-purin-6-yl)-piperidin-4-yl]-2,3-dihydro-1H-indene-5-carboxylic acid amide] | 90 | 101 |
| CC(C)N(C(=O)c1ccccc1Cl)[C@@H]1CCc2cc(C(=O)N(C)C3CCN(c4ccncc4)CC3)c(F)cc21 [Example H-158, (1R)-1-[(2-Chloro-benzoyl)isopropyl-amino]-6-fluoro-N-methyl-N-(1-pyridin-4-yl-piperidin-4-yl)-2,3-dihydro-1H-indene-5-carboxylic acid amide] | 23 | 61 |
| Cc1cc(N2CC(N(C)C(=O)c3ccc4c(c3)[C@H](NC(=O)c3ccccc3Cl)CC4)C2)ccn1 [Example H-160, (3R)-3-[(2-Chloro-benzoyl)amino]-N-methyl-N-[1-(2-methyl-pyridin-4-yl)-azetidin-3-yl]-2,3-dihydro-1H-indene-5-carboxylic acid amide] | 100 | 109 |
| Cc1cc(N2CC(N(C)C(=O)c3ccc4c(c3)[C@H](N3Cc5cccc(Cl)c5C3=O)CC4)C2)ccn1 [Example H-161, (3R)-3-(4-Chloro-3-oxo-1,2-dihydro-isoindol-2-yl)-N-methyl-N-[1-(2-methyl-pyridin-4-yl)-azetidin-3-yl]-2,3-dihydro-1H-indene-5-carboxylic acid amide] | 99 | 111 |
| Cc1cc(N2CCC(N(C)C(=O)c3ccc4c(c3)[C@H](NC(=O)c3ccccc3C)CC4)CC2)nc(C)n1 [Example H-162, (3R)-N-[1-(2,6-Dimethyl-pyrimidin-4-yl)-piperidin-4-yl]-N-methyl-3-[(2-methyl-benzoyl)amino]-2,3-dihydro-1H-indene-5-carboxylic acid amide] | 100 | 105 |
| Cc1cc(N2CCC(N(C)C(=O)c3ccc4c(c3)[C@H](NC(=O)c3c(F)cccc3Cl)CC4)CC2)nc(C)n1 [Example H-163, (3R)-3-[(2-Chloro-6-fluoro-benzoyl)amino]-N-[1-(2,6-dimethyl-pyrimidin-4-yl)-piperidin-4-yl]-N-methyl-2,3-dihydro-1H-indene-5-carboxylic acid amide] | 99 | 104 |
